According to ChEMBL document CHEMBL1201862, “PubChem BioAssay data set” (2004):
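Dose response: 5 concentrations. Exposure: 48 h. Format: 96-well plates. Endpoint: linear interpolation; highest concentration if not reached. Here, GI50 denotes the concentration required for 50% inhibition of growth.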 Activity calls are given as the source filed them. Rule as the data show it: active = GI50 up to about 1.1 µM and inactive = higher.

Legend:
Experiment in all cases: growth of human tumour cells (NCI), 48 h
786-0 = test system: 786-0
RPMI-8226 = test system: RPMI-8226
SF-539 = test system: SF-539
U-251 = test system: U-251
KM12 = test system: KM12
LOX IMVI = test system: LOX IMVI
UACC-257 = test system: UACC-257
CCRF-CEM = test system: CCRF-CEM
SF-268 = test system: SF-268
MOLT-4 = test system: MOLT-4
Malme-3M = test system: Malme-3M
ACHN = test system: ACHN
SN12C = test system: SN12C
OVCAR-5 = test system: OVCAR-5
DU-145 = test system: DU-145
SK-MEL-5 = test system: SK-MEL-5
HCT-15 = test system: HCT-15
SR = test system: SR
K562 = test system: K562
NCI-H226 = test system: NCI-H226
SW-620 = test system: SW-620
SK-OV-3 = test system: SK-OV-3
M14 = test system: M14
PC-3 = test system: PC-3
SNB-75 = test system: SNB-75
MDA-MB-231 = test system: MDA-MB-231
A498 = test system: A498
A549 = test system: A549
T47D = test system: T47D
Hs-578T = test system: Hs-578T
OVCAR-4 = test system: OVCAR-4
COLO 205 = test system: COLO 205
NCI-H23 = test system: NCI-H23
MCF7 = test system: MCF7
MDA-MB-435 = test system: MDA-MB-435
NCI/ADR-RES = test system: NCI/ADR-RES
EKVX = test system: EKVX
HOP-62 = test system: HOP-62
HL-60 = test system: HL-60
TK-10 = test system: TK-10
UO-31 = test system: UO-31
RXF 393 = test system: RXF 393
HCT-116 = test system: HCT-116
UACC-62 = test system: UACC-62
CAKI-1 = test system: CAKI-1
SK-MEL-28 = test system: SK-MEL-28
SNB-19 = test system: SNB-19
SK-MEL-2 = test system: SK-MEL-2
SF-295 = test system: SF-295
OVCAR-3 = test system: OVCAR-3
HOP-92 = test system: HOP-92
MDA-N = test system: MDA-N
HT-29 = test system: HT-29
NCI-H460 = test system: NCI-H460

Q: Which results are given for `COc1ccc(NC(=O)c2cc(NC(=O)/C=C/c3ccccc3)c(OC)c(OC)c2)cc1`?
A: GI50 (786-0): 11.7 µM (inactive); GI50 (RPMI-8226): 3.83 µM (inactive); GI50 (SF-539): 5.38 µM (inactive); GI50 (U-251): 8.91 µM (inactive); GI50 (KM12): 3.83 µM (inactive); GI50 (LOX IMVI): 4.73 µM (inactive); GI50 (UACC-257): 44.1 µM (inactive); GI50 (CCRF-CEM): 7 µM (inactive); GI50 (SF-268): 56.8 µM (inactive); GI50 (MOLT-4): 6 µM (inactive); GI50 (Malme-3M): 18.2 µM (inactive); GI50 (ACHN): 4.5 µM (inactive); GI50 (SN12C): 6.3 µM (inactive); GI50 (OVCAR-5): 40.7 µM (inactive); GI50 (DU-145): 16.3 µM (inactive); GI50 (SK-MEL-5): 5.82 µM (inactive); GI50 (HCT-15): 3.99 µM; GI50 (SR): 4.03 µM (inactive); GI50 (K562): 13.4 µM (inactive); GI50 (NCI-H226): 6.64 µM (inactive); GI50 (SW-620): 6.81 µM (inactive); GI50 (SK-OV-3): 51.5 µM (inactive); GI50 (M14): > 100 µM (inactive); GI50 (PC-3): 6.41 µM (inactive); GI50 (SNB-75): 2.26 µM (inactive); GI50 (MDA-MB-231): 9.55 µM (inactive); GI50 (A498): 53.6 µM (inactive); GI50 (A549): 7.55 µM (inactive); GI50 (T47D): 8.91 µM (inactive); GI50 (Hs-578T): 43.5 µM (inactive); GI50 (OVCAR-4): 53 µM (inactive); GI50 (COLO 205): 22.5 µM (inactive); GI50 (NCI-H23): > 100 µM (inactive); GI50 (MCF7): 3.69 µM (inactive); GI50 (MDA-MB-435): 3.07 µM (inactive); GI50 (NCI/ADR-RES): 28.5 µM (inactive); GI50 (EKVX): 54.2 µM (inactive); GI50 (HOP-62): 31.5 µM (inactive); GI50 (HL-60): 6.19 µM (inactive); GI50 (TK-10): > 100 µM (inactive); GI50 (UO-31): 1.98 µM (inactive); GI50 (RXF 393): 11.2 µM (inactive); GI50 (HCT-116): 2.48 µM (inactive); GI50 (UACC-62): 3.9 µM (inactive); GI50 (CAKI-1): 8.73 µM (inactive); GI50 (SK-MEL-28): 20.4 µM (inactive); GI50 (SNB-19): 61.1 µM (inactive); GI50 (SK-MEL-2): 2.58 µM (inactive); GI50 (SF-295): 17.4 µM (inactive); GI50 (OVCAR-3): 60.1 µM (inactive); GI50 (HOP-92): 16.8 µM (inactive); GI50 (MDA-N): 3.1 µM (inactive); GI50 (HT-29): 8.41 µM (inactive); GI50 (NCI-H460): 11.7 µM (inactive)
